In series [1] the target is T1, human BChE (Homo sapiens, UniProt P06276).
T1 construct: Plasma was removed and used as a source of BChE; from tissue; host or cells: human blood plasma from a healthy volunteer
Nature of the series: biochemical. The text has this: (§1) Cholinesterase substrate acetylthiocholine (ATCh) and the thiol reagent 5,5′-dithiobis(2-nitrobenzoic acid) (DTNB) for the enzyme activity measurement were purchased from Sigma-Aldrich (St. Louis, MO, USA). The sources of human AChE and BChE were native erythrocytes and plasma, respectively, obtained from the blood of a healthy volunteer and in accordance with the approval of the Ethics Committee of the Institute for Medical Research and Occupational Health (approval number: 100-21/23-6). Erythrocytes and plasma were isolated from the whole blood and prepared according to a previously published procedure. Namely, venous blood was collected into a heparinized tube and centrifuged (at 4 °C, 20 min on 2500 rpm, Eppendorf centrifuge 5702R) to separate plasma from the erythrocytes. Plasma was removed and used as a source of BChE, while erythrocytes were washed twice with the 0.1 M sodium phosphate buffer, pH 7.4, in a volume corresponding to the initial volume of the whole blood. Both plasma and erythrocytes were frozen at −20 °C until use. Quinuclidine compounds were dissolved in dH2O as 10 or 100 mM; exceptionally, 3-hydroxyimino compounds with longer chains (C12−C16) were dissolved in DMSO as 100 mM solutions. Stock solutions were kept at 4 °C until use. Further dilutions were made in distilled water.
(§2) The reversible inhibition experiments followed a previously published procedure. Namely, the enzyme activity was measured in the presence of a wide range of quinuclidine compound concentrations and in the substrate range from 0.1 to 0.5 mM to confirm the type of compound binding. The activity was assayed following the Ellman’s procedure, with the modification in the wavelength used for detection of the TNB anion in the case of AChE activity measurement due to the interference of the hemoglobin, and according to Worek et al.. The assay was performed in 96-well plates on an Infinite M200PRO plate reader (Tecan Austria GmbH, Salzburg, Austria) at 25 °C. Each concentration was tested in triplicate or quadruplicate on each plate. The inhibition mixture contained 0.1 M sodium phosphate buffer, pH 7.4, enzyme (AChE or BChE), quinuclidine compound (0.2–400 μM final), DTNB (0.3 mM final), and ATCh (from 0.1 to 0.5 mM final) to start the reaction. The increase in absorbance was read at 436 nm for AChE and at 412 nm for BChE. The measured activity in the presence of compounds was corrected for the non-enzymatic hydrolysis of substrate ATCh, if detected. The reversible enzyme–quinuclidine complex dissociation constants (the inhibition constants) Ki were evaluated from the effect of the substrate concentration on the degree of inhibition according to the Hunter–Downs equation as described previously, taking into account only quinuclidine concentrations where 20–80% inhibition of the activity was observed.

Series [2] deals with HepG2 cells. Kind of series: Cytotoxicity assay (MTS) on HepG2. The format is cell-based. The note with it: Homo sapiens. Here is the method: (§3) SH-SY5Y cells were grown in DMEM F12 (Sigma-Aldrich, St. Louis, MO, USA) supplemented with 15% (v/v) fetal bovine serum (FBS), 2 mM glutamine, and 1% (v/v) non-essential amino acids (NEAA). HepG2 cells were grown in EMEM supplemented with 10% (v/v) FBS, 2 mM glutamine, and 1% (v/v) non-essential amino acids NEAA. All media and supplements were purchased from Sigma-Aldrich, Steinheim, Germany.
(§4) The procedure followed a previously described protocol.

The test system of series [3] is SH-SY5Y cells. Kind of series: Cytotoxicity assay (MTS) on SH-SY5Y. The format is cell-based. Particulars: Homo sapiens. The method, then:
as §3, §4

Series [4] has as its target T2, human AChE (Homo sapiens, UniProt P22303).
T2 construct: The sources of human AChE and BChE were native erythrocytes and plasma, respectively; from tissue; host or cells: human erythrocytes from venous blood of a healthy volunteer
Kind of series: Reversible inhibition of AChE (Ellman's procedure, Hunter–Downs evaluation). The format is biochemical. Particulars: for Ki: Ki ± standard error, 0.1, 0.2, 0.35 and 0.5 mM substrate ATCh, 25 °C, pH 7.4; for Ki (AChE)/Ki (BChE): selectivity ratio.
Excerpt: as §1, §2

Series [5] deals with HepG2 cells. Nature of the series: Mitochondrial membrane potential (TMRE assay) on HepG2. The format is cell-based, human. Particulars: HepG2, 4 h exposure, LOAEL concentrations. The method, then: (§5) Human neuroblastoma SH-SY5Y (ECACC 94030304) and human hepatocyte carcinoma HepG2 (ECACC 85011430) were used to evaluate in vitro dose- and time-dependent different cell effects. The SH-SY5Y cell line was selected as it represents a well-established model for studying neuronal cells, while HepG2 hepatocytes represent a liver model as a major organ participating in the metabolism of diverse compounds [31, 61, 62]. SH-SY5Y cells were grown in DMEM F12 (Sigma-Aldrich, St. Louis, MO, USA) supplemented with 15% (v/v) fetal bovine serum (FBS), 2 mM glutamine, and 1% (v/v) non-essential amino acids (NEAA). HepG2 cells were grown in EMEM supplemented with 10% (v/v) FBS, 2 mM glutamine, and 1% (v/v) non-essential amino acids NEAA. All media and supplements were purchased from Sigma-Aldrich, Steinheim, Germany.
(§6) Mitochondrial membrane potential (ΔΨm) was determined using a cell-permeable, potential-sensitive cationic dye, tetramethylrhodamine ethyl ester perchlorate (TMRE, Cell Signaling Technology Europe, Leiden, The Netherlands). Cells were exposed for 4 h to derivatives 3–5 and 10–12. The procedure followed a previously described protocol. A concentration of 50 µM carbonyl cyanide 3-chlorophenylhydrazone (CCCP, Cell Signaling Technology Europe, Leiden, The Netherlands) was used as a positive control. Data were evaluated from at least three independent experiments (performed in duplicate) and presented as a normalized signal to the untreated control, according to the manufacturer’s calculation protocol.

The subject of series [6] is SH-SY5Y cells. Kind of series: Cell membrane integrity (LDH release) on SH-SY5Y. The format is cell-based, human. Particulars: 4 h exposure, 12.5–200 µM. The method, then:
as §5
(§7) Cell membrane integrity was determined after 4 h exposure to derivatives 3–5 and 10–12 by measuring the release of the intracellular lactate dehydrogenase (LDH), and the procedure followed a previously described protocol using The CytoTox-ONE™ Homogeneous Membrane Integrity Assay (Promega, Madison, WI, USA). Triton X-100 at a final concentration of 0.18% (v/v) (stock of 9% in water; Sigma-Aldrich, Steinheim, Germany) was used as a positive control to determine the maximal LDH release. Data were taken from at least two independent experiments (each treatment performed in duplicate) and plotted as a percentage of LDH release compared to the determined maximal LDH release, according to the manufacturer’s calculation protocol.

For series [7], the system named is HepG2 cells. Nature of the series: Cell membrane integrity (LDH release) on HepG2. The format is cell-based, human. Particulars: HepG2, 4 h exposure, 12.5–200 µM. Here is the method: as §5, §7
(In general: LDH in the medium is a marker of cell lysis.)

Series [8] relates to SH-SY5Y cells. Kind of series: Mitochondrial membrane potential (TMRE assay) on SH-SY5Y. The format is cell-based, human. The note with it: 4 h exposure, LOAEL concentrations. The method, then:
as §5, §6

[9] abbreviates: Ki ± standard error, 0.1, 0.2, 0.35 and 0.5 mM substrate ATCh, 25 °C, pH 7.4, read-out: Ki BChE.
[10] abbreviates: HepG2, read-out: IC50 ± SE HepG2 1 h, 1 h exposure.
Setting [11] is: HepG2, 4 h exposure, read-out: IC50 ± SE HepG2 4 h.
[12] abbreviates: HepG2, 24 h exposure, read-out: IC50 ± SE HepG2 24 h.
Setting [13] is: 4 h exposure, read-out: IC50 ± SE SH-SY5Y 4 h.
Where [14] appears, read: 24 h exposure, read-out: IC50 ± SE SH-SY5Y 24 h.
[15] abbreviates: read-out: IC50 ± SE SH-SY5Y 1 h, 1 h exposure.

The record followed here is article PMC10778980, “Profiling Novel Quinuclidine-Based Derivatives as Potential Anticholinesterase Drugs: Enzyme Inhibition and Effects on Cell Viability” (International Journal of Molecular Sciences, 2023).

Entries after “also recorded” stand apart in the source; their conditions may differ. Read-outs that look alike come from different tables or passages of the source.

T1 sequence (P06276 29-602): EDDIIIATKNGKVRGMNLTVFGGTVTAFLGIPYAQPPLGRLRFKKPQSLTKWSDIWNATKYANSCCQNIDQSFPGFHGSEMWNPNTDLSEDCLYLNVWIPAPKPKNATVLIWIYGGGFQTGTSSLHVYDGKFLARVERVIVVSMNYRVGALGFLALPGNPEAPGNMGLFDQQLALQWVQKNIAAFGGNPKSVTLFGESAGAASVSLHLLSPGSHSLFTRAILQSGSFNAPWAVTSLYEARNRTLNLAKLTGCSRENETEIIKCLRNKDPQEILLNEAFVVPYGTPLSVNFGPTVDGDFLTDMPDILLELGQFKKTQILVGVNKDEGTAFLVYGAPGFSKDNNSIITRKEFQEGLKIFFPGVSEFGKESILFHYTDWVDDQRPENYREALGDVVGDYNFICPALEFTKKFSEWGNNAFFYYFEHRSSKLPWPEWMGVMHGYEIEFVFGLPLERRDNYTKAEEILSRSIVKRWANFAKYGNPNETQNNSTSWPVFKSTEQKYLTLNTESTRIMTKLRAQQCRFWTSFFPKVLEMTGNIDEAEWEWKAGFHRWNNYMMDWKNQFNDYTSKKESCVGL
T2 sequence (P22303 32-617 isoform P22303-2 limits assumed): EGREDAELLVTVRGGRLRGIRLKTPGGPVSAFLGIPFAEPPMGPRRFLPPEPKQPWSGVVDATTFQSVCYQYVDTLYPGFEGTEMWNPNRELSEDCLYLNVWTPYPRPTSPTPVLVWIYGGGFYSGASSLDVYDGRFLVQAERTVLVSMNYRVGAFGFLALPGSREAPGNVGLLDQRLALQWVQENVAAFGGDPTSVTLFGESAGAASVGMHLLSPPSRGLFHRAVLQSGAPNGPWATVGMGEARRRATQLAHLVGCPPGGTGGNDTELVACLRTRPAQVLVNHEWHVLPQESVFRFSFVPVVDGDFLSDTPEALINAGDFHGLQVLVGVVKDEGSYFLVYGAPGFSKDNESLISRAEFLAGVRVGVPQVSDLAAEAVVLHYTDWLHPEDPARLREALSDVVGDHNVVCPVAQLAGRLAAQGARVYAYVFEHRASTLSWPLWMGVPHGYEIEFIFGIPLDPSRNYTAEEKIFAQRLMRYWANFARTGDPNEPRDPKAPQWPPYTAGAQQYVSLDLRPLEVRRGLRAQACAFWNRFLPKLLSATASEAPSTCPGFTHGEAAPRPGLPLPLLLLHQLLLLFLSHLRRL

Broadly, the Ki is a dissociation constant, usually derived from enzyme kinetics or from competition with a known ligand. The term IC50 denotes the concentration that gives 50% inhibition. Take `CCCCCCCC[N+]12CCC(CC1)C(O)C2` (centres unmarked) [Compound 1]: the Ki in series [1] (setting [9]) turned out to be 85.1 ± 22.1 µM; in series [4], 156 ± 26.1 µM. Moreover, the IC50 in series [2] (setting [10]), in series [2] (setting [11]), in series [2] (setting [12]), in series [3] (setting [13]), in series [3] (setting [14]) and in series [3] (setting [15]) was ≥ 800 µM each time. Further, the “Ki (AChE)/Ki (BChE)” value in series [4] stood at 1.8.
Take `CCCCCCCCCC[N+]12CCC(CC1)C(O)C2` (centres unmarked) [Compound 2]: the figures for the Ki in series [1] (setting [9]) and in series [4] were 11.8 ± 1.1 µM and 63.8 ± 5.1 µM, respectively. The IC50 is ≥ 800 µM in series [2] (setting [10]); ≥ 800 µM in series [2] (setting [11]); ≥ 537 µM in series [2] (setting [12]); ≥ 800 µM in series [3] (setting [13]); ≥ 800 µM in series [3] (setting [14]); ≥ 800 µM in series [3] (setting [15]). Besides, in series [4], the “Ki (AChE)/Ki (BChE)” value is 5.4.
Regarding `CCCCCCCCCCCC[N+]12CCC(CC1)C(O)C2` (centres unmarked) [Compound 3], the Ki in series [1] (setting [9]) stood at 9 ± 0.8 µM; in series [4], 13.2 ± 0.6 µM. The “Mitochondrial membrane potential (ΔΨm)” value in series [5] and in series [8] was “decrease in the mitochondrial membrane potential” in each case. In addition, the results for the LDH release entry in series [6] and in series [7] were “significant LDH release” and “strongest effect; also recorded: significant LDH release”, respectively. The IC50 was determined as 135 ± 1 µM in series [2] (setting [10]); 81 ± 1 µM in series [2] (setting [11]); 66 ± 1 µM in series [2] (setting [12]); 74 ± 1 µM in series [3] (setting [13]); 56 ± 1 µM in series [3] (setting [14]); 145 ± 1 µM in series [3] (setting [15]). Besides, the “Ki (AChE)/Ki (BChE)” value in series [4] is listed as 1.5.
As to `OC1C[N+]2(CCCCCCCC[N+]34CCC(CC3)C(O)C4)CCC1CC2` (centres unmarked) [Compound 6, 1,1′-(octano)bis(3-hydroxyquinuclidinium bromide)], the Ki in series [1] (setting [9]) was determined as 12.9 ± 1 µM; in series [4] it was 24 ± 1.1 µM. The IC50 in series [2] (setting [10]), in series [2] (setting [11]), in series [2] (setting [12]), in series [3] (setting [13]), in series [3] (setting [14]) and in series [3] (setting [15]) was ≥ 800 µM each time. The “Ki (AChE)/Ki (BChE)” value in series [4] was 1.9.
Consider `OC1C[N+]2(CCCCCCCCCC[N+]34CCC(CC3)C(O)C4)CCC1CC2` (centres unmarked) [Compound 7, 1,1’-(decano)bis(3-hydroxyquinuclidinium bromide)], for which the results for the Ki in series [1] (setting [9]) and in series [4] were 1.6 ± 0.2 µM and 0.52 ± 0.05 µM, respectively. For the same compound, the IC50 in series [2] (setting [10]), in series [2] (setting [11]), in series [2] (setting [12]), in series [3] (setting [13]), in series [3] (setting [14]) and in series [3] (setting [15]) was ≥ 800 µM each time. Moreover, in series [4], the “Ki (AChE)/Ki (BChE)” value is on record as 0.3.
Regarding `CCCCCCCC[N+]12CCC(CC1)C(=NO)C2.[Br-]` [Compound 8, 1-octyl-3-hydroxyiminoquinuclidinium bromide], the inhibitory constant (Ki) in series [1] worked out at 37.9 ± 10.4 µM; in series [4], 82.7 ± 3.5 µM. The IC50 in series [2] (setting [10]), in series [2] (setting [11]), in series [2] (setting [12]), in series [3] (setting [13]), in series [3] (setting [14]) and in series [3] (setting [15]) was ≥ 800 µM in each case. Besides, the “Ki (AChE)/Ki (BChE)” value in series [4] worked out at 2.2.
Regarding `CCCCCCCCCC[N+]12CCC(CC1)C(=NO)C2.[Br-]` [Compound 9, 1-decyl-3-hydroxyiminoquinuclidinium bromide], the Ki was 5.2 ± 1.1 µM in series [1] and 23.8 ± 0.8 µM in series [4]. The IC50 in series [2] (setting [10]), in series [2] (setting [11]), in series [2] (setting [12]), in series [3] (setting [13]), in series [3] (setting [14]) and in series [3] (setting [15]) was ≥ 800 µM each time. Besides, in series [4], the “Ki (AChE)/Ki (BChE)” value is 4.6.
On to `ON=C1C[N+]2(CCCCCCCC[N+]34CCC(CC3)C(=NO)C4)CCC1CC2` [Compound 13, 1,1’-(octano)bis(3-hydroxyiminoquinuclidinium bromide)], for which the Ki in series [1] (setting [9]) turned out to be 3.4 ± 0.2 µM; in series [4] it was 1.8 ± 0.07 µM. For the same compound, the IC50 in series [2] (setting [10]), in series [2] (setting [11]), in series [2] (setting [12]), in series [3] (setting [13]), in series [3] (setting [14]) and in series [3] (setting [15]) was ≥ 800 µM throughout. Besides, the “Ki (AChE)/Ki (BChE)” value in series [4] was determined as 0.5.
As for `ON=C1C[N+]2(CCCCCCCCCC[N+]34CCC(CC3)C(=NO)C4)CCC1CC2` [Compound 14, 1,1’-(decano)bis(3-hydroxyiminoquinuclidinium bromide)], the inhibition constant (Ki) amounted to 1.2 ± 0.06 µM in series [1] (setting [9]) and 0.26 ± 0.02 µM in series [4]. Besides, the IC50 in series [2] (setting [10]), in series [2] (setting [11]), in series [2] (setting [12]), in series [3] (setting [13]), in series [3] (setting [14]) and in series [3] (setting [15]) was ≥ 800 µM in each case. For the same compound, in series [4] (AChE Ki compared to donepezil), the “times less efficient than donepezil” value is given as “around 60”. Also, the “Ki (AChE)/Ki (BChE)” value in series [4] is listed as 0.2.
